The source of these data is patent US7846959B2, “Raf modulators and methods of use” (Exelixis, Inc., priority 2004, dated 2010).

The target of one experiment is c-Raf (Homo sapiens, UniProt P04049). As to the kind of experiment: Luciferase-coupled chemiluminescence kinase assay (ATP consumption), c-Raf. The class given is biochemical. Conditions: read-out: cRaf-1 IC50. Summed up:
(§1)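 Compound is first mixed with […] Raf enzyme in 20 mM Tris pH 7.5 containing 10 mM MgCl2, 0.03% TX-100 and 1 mM DTT (30 min, room temperature). ATP then starts a 3 h reaction, and unconsumed ATP is detected by chemiluminescence.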

The next experiment concerns the target B-Raf (Homo sapiens, UniProt P15056). As to the kind of experiment: Luciferase-coupled chemiluminescence kinase assay (ATP consumption), B-Raf. The class given is biochemical. Particulars: read-out: bRaf IC50. In short, it runs like this: as §1

Molecules are shown by their SMILES. Some results are limits rather than exact numbers.

c-Raf, sequence (P04049 whole entry): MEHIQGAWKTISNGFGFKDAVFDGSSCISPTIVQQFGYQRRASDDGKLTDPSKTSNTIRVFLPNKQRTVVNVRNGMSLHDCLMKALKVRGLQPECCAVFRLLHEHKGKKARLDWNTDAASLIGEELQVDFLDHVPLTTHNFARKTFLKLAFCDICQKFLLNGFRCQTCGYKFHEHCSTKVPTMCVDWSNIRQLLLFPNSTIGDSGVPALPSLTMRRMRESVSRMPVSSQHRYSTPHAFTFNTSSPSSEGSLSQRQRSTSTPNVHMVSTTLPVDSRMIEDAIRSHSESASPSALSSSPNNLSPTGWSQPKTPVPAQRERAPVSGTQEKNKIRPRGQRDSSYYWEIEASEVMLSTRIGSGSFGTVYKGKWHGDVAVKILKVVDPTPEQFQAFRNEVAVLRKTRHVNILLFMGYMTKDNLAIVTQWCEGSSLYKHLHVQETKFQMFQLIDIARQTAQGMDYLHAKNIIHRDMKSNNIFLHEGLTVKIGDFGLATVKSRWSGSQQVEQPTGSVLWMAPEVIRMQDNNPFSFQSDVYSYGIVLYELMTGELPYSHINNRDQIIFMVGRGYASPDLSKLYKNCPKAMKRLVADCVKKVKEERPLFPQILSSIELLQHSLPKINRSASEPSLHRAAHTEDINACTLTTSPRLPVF
B-Raf, sequence (P15056 whole entry): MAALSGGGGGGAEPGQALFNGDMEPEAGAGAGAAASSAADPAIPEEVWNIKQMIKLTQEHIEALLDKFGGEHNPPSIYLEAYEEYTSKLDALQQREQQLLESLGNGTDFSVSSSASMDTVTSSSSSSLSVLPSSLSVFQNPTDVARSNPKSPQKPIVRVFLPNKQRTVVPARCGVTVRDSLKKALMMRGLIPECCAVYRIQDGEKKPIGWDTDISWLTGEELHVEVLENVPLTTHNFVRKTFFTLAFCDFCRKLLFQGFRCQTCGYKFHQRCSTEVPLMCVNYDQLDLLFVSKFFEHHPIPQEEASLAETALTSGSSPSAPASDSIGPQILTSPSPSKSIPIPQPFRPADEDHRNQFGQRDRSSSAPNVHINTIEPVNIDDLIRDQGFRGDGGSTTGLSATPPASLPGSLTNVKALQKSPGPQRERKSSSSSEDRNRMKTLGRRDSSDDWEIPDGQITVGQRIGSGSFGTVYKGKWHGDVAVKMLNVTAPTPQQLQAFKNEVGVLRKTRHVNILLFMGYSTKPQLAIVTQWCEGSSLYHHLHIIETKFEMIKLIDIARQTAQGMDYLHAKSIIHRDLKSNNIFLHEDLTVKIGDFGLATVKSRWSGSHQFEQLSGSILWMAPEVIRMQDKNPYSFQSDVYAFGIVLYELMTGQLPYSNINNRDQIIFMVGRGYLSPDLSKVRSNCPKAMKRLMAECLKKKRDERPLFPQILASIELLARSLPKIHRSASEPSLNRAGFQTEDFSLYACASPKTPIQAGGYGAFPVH

Usually IC50 stands for the midpoint of a concentration-inhibition curve. Turning to `CC#CCOC(=O)Nc1nc2cc(C3(O)c4ccccc4C(=O)N3Cc3ccccc3)ccc2[nH]1` (centres unmarked) [Entry 109, but-2-yn-1-yl {5-[1-hydroxy-3-oxo-2-(phenylmethyl)-2,3-dihydro-1H-isoindol-1-yl]-1H-benzimidazol-2-yl}carbamate], the 50% inhibitory concentration (IC50) on c-Raf and at B-Raf was < 100 nM throughout.

For `CC(C)OC(=O)Nc1nc2cc(C3(O)c4ccccc4C(=O)N3Cc3ccccc3)ccc2[nH]1` (centres unmarked) [Entry 110, 1-methylethyl {5-[1-hydroxy-3-oxo-2-(phenylmethyl)-2,3-dihydro-1H-isoindol-1-yl]-1H-benzimidazol-2-yl}carbamate], the IC50 at c-Raf and on B-Raf was < 100 nM throughout.

With `COC(=O)Nc1nc2cc(C3(O)c4ccccc4C(=O)N3C3Cc4ccccc4C3)ccc2[nH]1` (centres unmarked) [Entry 111, methyl {5-[2-(2,3-dihydro-1H-inden-2-yl)-1-hydroxy-3-oxo-2,3-dihydro-1H-isoindol-1-yl]-1H-benzimidazol-2-yl}carbamate], the 50% inhibitory concentration (IC50) at c-Raf and on B-Raf was ≥ 10000 nM throughout.

As to `COC(=O)Nc1nc2cc(C3(O)c4ccccc4C(=O)N3Cc3ccncc3)ccc2[nH]1` (centres unmarked) [Entry 112, methyl {5-[1-hydroxy-3-oxo-2-(pyridin-4-ylmethyl)-2,3-dihydro-1H-isoindol-1-yl]-1H-benzimidazol-2-yl}carbamate], the concentration for half-maximal inhibition (IC50) at c-Raf was 1000 to 10000 nM; at B-Raf, ≥ 10000 nM.

As to `COC(=O)Nc1nc2cc(C3(O)c4ccccc4C(=O)N3Cc3cccnc3)ccc2[nH]1` (centres unmarked) [Entry 113, methyl {5-[1-hydroxy-3-oxo-2-(pyridin-3-ylmethyl)-2,3-dihydro-1H-isoindol-1-yl]-1H-benzimidazol-2-yl}carbamate], the IC50 on c-Raf and at B-Raf was 100 to 1000 nM throughout.

As for `COC(=O)Nc1nc2ccc(C3(O)c4ccccc4C(=O)N3Cc3cccc(F)c3)cc2[nH]1` (centres unmarked) [Entry 114, methyl (6-{2-[(3-fluorophenyl)methyl]-1-hydroxy-3-oxo-2,3-dihydro-1H-isoindol-1-yl}-1H-benzimidazol-2-yl)carbamate], the IC50 on c-Raf and on B-Raf was < 100 nM throughout.

With `COC(=O)Nc1nc2cc(C3(O)c4ccccc4C(=O)N3c3cccc(C)c3)ccc2[nH]1` (centres unmarked) [Entry 115, methyl {5-[1-hydroxy-2-(3-methylphenyl)-3-oxo-2,3-dihydro-1H-isoindol-1-yl]-1H-benzimidazol-2-yl}carbamate], the concentration for half-maximal inhibition (IC50) on c-Raf and at B-Raf was < 100 nM throughout.

As for `COC(=O)Nc1nc2cc(C3(O)c4ccccc4C(=O)N3Cc3ccccc3OC)ccc2[nH]1` (centres unmarked) [Entry 116, methyl [5-(1-hydroxy-2-{[2-(methyloxy)phenyl]methyl}-3-oxo-2,3-dihydro-1H-isoindol-1-yl)-1H-benzimidazol-2-yl]carbamate], the half-inhibitory concentration (IC50) at c-Raf and at B-Raf was 1000 to 10000 nM each time.

`COC(=O)Nc1nc2cc(C3(O)c4ccccc4C(=O)N3Cc3cccc(OC)c3)ccc2[nH]1` (centres unmarked) [Entry 117, methyl [5-(1-hydroxy-2-{[3-(methyloxy)phenyl]methyl}-3-oxo-2,3-dihydro-1H-isoindol-1-yl)-1H-benzimidazol-2-yl]carbamate]: the IC50 on c-Raf and at B-Raf was 100 to 1000 nM in each case.

For the compound `COC(=O)Nc1nc2cc(C3(O)c4ccccc4C(=O)N3Cc3ccc(OC)cc3)ccc2[nH]1` (centres unmarked) [Entry 118, methyl [5-(1-hydroxy-2-{[4-(methyloxy)phenyl]methyl}-3-oxo-2,3-dihydro-1H-isoindol-1-yl)-1H-benzimidazol-2-yl]carbamate], the IC50 at c-Raf and at B-Raf was ≥ 10000 nM in each case.

Take `COC(=O)Nc1nc2ccc(C3(O)c4ccccc4C(=O)N3Cc3ccc(F)cc3)cc2[nH]1` (centres unmarked) [Entry 119, methyl (6-{2-[(4-fluorophenyl)methyl]-1-hydroxy-3-oxo-2,3-dihydro-1H-isoindol-1-yl}-1H-benzimidazol-2-yl)carbamate]: the IC50 at c-Raf and at B-Raf was 100 to 1000 nM throughout.

`COC(=O)Nc1nc2ccc(C3(O)c4ccccc4C(=O)N3Cc3cccc(Br)c3)cc2[nH]1` (centres unmarked) [Entry 120, methyl (6-{2-[(3-bromophenyl)methyl]-1-hydroxy-3-oxo-2,3-dihydro-1H-isoindol-1-yl}-1H-benzimidazol-2-yl)carbamate]: the IC50 at c-Raf and at B-Raf was < 100 nM in each case.

Turning to `COC(=O)Nc1nc2cc(C3(O)c4ccccc4C(=O)N3Cc3cccc(I)c3)ccc2[nH]1` (centres unmarked) [Entry 121, methyl (5-{1-hydroxy-2-[(3-iodophenyl)methyl]-3-oxo-2,3-dihydro-1H-isoindol-1-yl}-1H-benzimidazol-2-yl)carbamate], the half-inhibitory concentration (IC50) on c-Raf and on B-Raf was 100 to 1000 nM in each case.

Consider `COC(=O)Nc1nc2cc(C3(O)c4ccccc4C(=O)N3Cc3cccc(Cl)c3)ccc2[nH]1` (centres unmarked) [Entry 122, methyl (5-{2-[(3-chlorophenyl)methyl]-1-hydroxy-3-oxo-2,3-dihydro-1H-isoindol-1-yl}-1H-benzimidazol-2-yl)carbamate], for which the 50% inhibitory concentration (IC50) on c-Raf and on B-Raf was < 100 nM throughout.

Consider `COC(=O)Nc1nc2cc(C3(O)c4ccccc4C(=O)N3Cc3ccccc3F)ccc2[nH]1` (centres unmarked) [Entry 123, methyl (5-{2-[(2-fluorophenyl)methyl]-1-hydroxy-3-oxo-2,3-dihydro-1H-isoindol-1-yl}-1H-benzimidazol-2-yl)carbamate], for which the IC50 on c-Raf and at B-Raf was < 100 nM throughout.

As for `COC(=O)Nc1nc2cc(C3(O)c4ccccc4C(=O)N3Cc3ccccn3)ccc2[nH]1` (centres unmarked) [Entry 124, methyl {5-[1-hydroxy-3-oxo-2-(pyridin-2-ylmethyl)-2,3-dihydro-1H-isoindol-1-yl]-1H-benzimidazol-2-yl}carbamate], the IC50 at c-Raf and at B-Raf was 100 to 1000 nM each time.

With `O=C(Nc1nc2cc(C3(O)c4ccccc4C(=O)N3Cc3ccccc3)ccc2[nH]1)OCc1ccccc1` (centres unmarked) [Entry 125, phenylmethyl {5-[1-hydroxy-3-oxo-2-(phenylmethyl)-2,3-dihydro-1H-isoindol-1-yl]-1H-benzimidazol-2-yl}carbamate], the IC50 at c-Raf and on B-Raf was < 100 nM each time.

`O=C(Nc1nc2cc(C3(O)c4ccccc4C(=O)N3Cc3ccccc3)ccc2[nH]1)OCCF` (centres unmarked) [Entry 126, 2-fluoroethyl {5-[1-hydroxy-3-oxo-2-(phenylmethyl)-2,3-dihydro-1H-isoindol-1-yl]-1H-benzimidazol-2-yl}carbamate]: the half-maximal inhibitory concentration (IC50) on c-Raf and on B-Raf was < 100 nM throughout.

Turning to `CCCOC(=O)Nc1nc2cc(C3(O)c4ccccc4C(=O)N3Cc3ccccc3)ccc2[nH]1` (centres unmarked) [Entry 127, propyl {5-[1-hydroxy-3-oxo-2-(phenylmethyl)-2,3-dihydro-1H-isoindol-1-yl]-1H-benzimidazol-2-yl}carbamate], the half-maximal inhibitory concentration (IC50) on c-Raf and on B-Raf was < 100 nM in each case.

For `COC(=O)Nc1nc2cc(C3(O)c4ccccc4C(=O)N3c3ccc(OC)cc3)ccc2[nH]1` (centres unmarked) [Entry 128, methyl (5-{1-hydroxy-2-[4-(methyloxy)phenyl]-3-oxo-2,3-dihydro-1H-isoindol-1-yl}-1H-benzimidazol-2-yl)carbamate], the half-inhibitory concentration (IC50) at c-Raf and on B-Raf was 1000 to 10000 nM in each case.

`COC(=O)Nc1nc2cc(C3(O)c4ccccc4C(=O)N3Cc3ccccc3Cl)ccc2[nH]1` (centres unmarked) [Entry 129, methyl (5-{2-[(2-chlorophenyl)methyl]-1-hydroxy-3-oxo-2,3-dihydro-1H-isoindol-1-yl}-1H-benzimidazol-2-yl)carbamate]: the half-maximal inhibitory concentration (IC50) at c-Raf was < 100 nM; on B-Raf, 100 to 1000 nM.

Take `COC(=O)Nc1nc2cc(C3(O)c4ccccc4C(=O)N3Cc3ccccc3Br)ccc2[nH]1` (centres unmarked) [Entry 130, methyl (5-{2-[(2-bromophenyl)methyl]-1-hydroxy-3-oxo-2,3-dihydro-1H-isoindol-1-yl}-1H-benzimidazol-2-yl)carbamate]: the concentration for half-maximal inhibition (IC50) at c-Raf and at B-Raf was 100 to 1000 nM throughout.

With `COC(=O)Nc1nc2cc(C3(O)c4ccccc4C(=O)N3Cc3cccc(C)c3)ccc2[nH]1` (centres unmarked) [Entry 131, methyl (5-{1-hydroxy-2-[(3-methylphenyl)methyl]-3-oxo-2,3-dihydro-1H-isoindol-1-yl}-1H-benzimidazol-2-yl)carbamate], the half-maximal inhibitory concentration (IC50) on c-Raf and on B-Raf was < 100 nM throughout.

Take `COC(=O)Nc1nc2cc(C3(O)c4ccccc4C(=O)N3Cc3ccc(C)cc3)ccc2[nH]1` (centres unmarked) [Entry 132, methyl (5-{1-hydroxy-2-[(4-methylphenyl)methyl]-3-oxo-2,3-dihydro-1H-isoindol-1-yl}-1H-benzimidazol-2-yl)carbamate]: the figures for the concentration for half-maximal inhibition (IC50) at c-Raf and on B-Raf were 100 to 1000 nM and 1000 to 10000 nM, respectively.

On to `COC(=O)Nc1nc2cc(C3(O)c4ccccc4C(=O)N3Cc3ccccc3C)ccc2[nH]1` (centres unmarked) [Entry 133, methyl (5-{1-hydroxy-2-[(2-methylphenyl)methyl]-3-oxo-2,3-dihydro-1H-isoindol-1-yl}-1H-benzimidazol-2-yl)carbamate], for which the half-maximal inhibitory concentration (IC50) at c-Raf and on B-Raf was < 100 nM in each case.

Turning to `COC(=O)Nc1nc2cc(C3(O)c4ccccc4C(=O)N3c3cccc(Br)c3)ccc2[nH]1` (centres unmarked) [Entry 134, methyl {5-[2-(3-bromophenyl)-1-hydroxy-3-oxo-2,3-dihydro-1H-isoindol-1-yl]-1H-benzimidazol-2-yl}carbamate], the half-inhibitory concentration (IC50) at c-Raf and at B-Raf was < 100 nM each time.

As to `COC(=O)Nc1nc2cc(C3(O)c4ccccc4C(=O)N3c3cccc(Cl)c3)ccc2[nH]1` (centres unmarked) [Entry 135, methyl {5-[2-(3-chlorophenyl)-1-hydroxy-3-oxo-2,3-dihydro-1H-isoindol-1-yl]-1H-benzimidazol-2-yl}carbamate], the half-maximal inhibitory concentration (IC50) at c-Raf and on B-Raf was < 100 nM throughout.

On to `COC(=O)Nc1nc2cc(C3(O)c4ccccc4C(=O)N3c3cccc(F)c3)ccc2[nH]1` (centres unmarked) [Entry 136, methyl {5-[2-(3-fluorophenyl)-1-hydroxy-3-oxo-2,3-dihydro-1H-isoindol-1-yl]-1H-benzimidazol-2-yl}carbamate], for which the IC50 at c-Raf and at B-Raf was < 100 nM throughout.
